How the values were obtained:
[1] = Real time in situ AFM step velocity measurements of L-cystine crystal growth with additive; details: for Vo/V (inverse of V/Vo): higher = more effective inhibition; for V/Vo (normalized velocity of step advancement): supersaturated L-cystine solution, lower = more effective inhibition
Experimental: A Digital Instruments (Santa Barbara, Calif.) Nanoscope IIIa Multimode system is used for topographical and lattice imaging. All measurements are performed in contact mode using Veeco NP_B Si3N4 cantilever tips with a spring constant of 0.12 N/m (triangular, 196 μm length, 41 μm width) on a glass cantilever holder, and a liquid cell is created for in situ step velocity measurements. All L-cystine crystals for AFM measurements are prepared by the method described herein. Crystals are transferred onto an AFM specimen disk coated with partially cured (1 hr) UV-curable optical cement (Type SK-9, EMS Acquisition Corp.) by gently pressing the disk against hexagonal platelets or L-cystine needles isolated by filtration (Whatman Nuclepore membrane, 8 μm). The (0001) face of hexagonal platelets is exposed normal to the disk for AFM analysis with growth occurring along equivalent {1010} faces in the lateral directions, while the sides of L-cystine needles are exposed normal to the disc. The partially cured polymer with adhered crystals is completely cured by additional UV radiation (2 hrs) prior to analysis. Measurements of individual step heights for hexagonal L-cystine crystals are acquired in air (contact mode) at a scan rate of 1.00 Hz and 256 samples per line over a 15×15 μm^2 surface area. Integral and proportional gains are set to the highest possible values without obtaining feedback. Four hexagonal crystals (5 areas per crystal) are analyzed for statistical step height distributions, which are calculated from >10^3 individual steps. Lattice-resolved images of crystal surfaces are acquired in water (contact mode) using a scan rate of 112 Hz over a 12×12 nm^2 area.
Real time in situ step velocity measurements of L-cystine growth are assessed along six structurally-equivalent {1010} faces of the hexagonal structure. A liquid cell is created with the glass cantilever tip holder, and working solutions are injected through a 1-mL syringe. Prior to injecting the growth medium (i.e. supersaturated L-cystine solution), crystals are etched with deionized water in the fluid cell for one hour to remove amorphous deposits or impurities that may be present on the surface. Supersaturated solutions (0.5 g/L) are generated by adding L-cystine to deionized water, boiling the solution on a heating mantle for 20 min to completely dissolve the solute, and allowing the solution to cool for 20 min on the heating mantle before transferring the solution (via syringe) to the AFM fluid cell. This method allows the solution to gradually cool to room temperature prior to AFM measurements in an effort to minimize premature nucleation of L-cystine in the growth solution.
The effect of the compound of invention (additives) on crystal growth rates is investigated. Additives are combined with the supersaturated L-cystine following the 20 min cool down period (as discussed above) to avoid denaturing biological additives at higher temperature. A small volume (0.2 mL) of concentrated additive is mixed with 4.8 mL of L-cystine to generate 0.48 g/L L-cystine solutions with additives of varying concentrations. Control measurements without additive are performed in a similar manner, replacing concentrated additive solutions deionized water to maintain a constant L-cystine concentration. Data collection is started immediately after injecting the working solution into the AFM liquid cell. For each measurement, growth is first assessed in the absence of additive, then in the presence of additive on the identical area of the crystal surface to analyze relative changes in step velocity. Measurements are acquired at static conditions without refreshment of growth solution using supersaturated L-cystine solutions […] than the solubility of L-cystine in water, which is reported as 0.4-0.7 mM (pH 7, 25° C.). […] At static conditions, solute is depleted from solution during growth, leading to a slight decrease in the step velocity with increasing time. […]

[2] = pH 7, 25° C.; cited from earlier work

With `COC(=O)[C@@H](N)C/C=C/C[C@H](N)C(=O)OC` [Compound 10, L-dimethyl 2,7-diaminooct-4-enedioate] the “Vo/V (inverse of V/Vo)” value ([1]; additive 0.015 mM) was 1.23 and the “V/Vo (normalized velocity of step advancement)” value ([1]; additive 0.015 mM) was 0.81.

In the case of `N[C@@H](CSSC[C@H](N)C(=O)O)C(=O)O` [L-cystine], the “solubility of L-cystine in water” value [2] is listed as 400 to 700 µM.

In the case of `N[C@@H](CSSC[C@H](N)C(=O)Oc1ccccc1)C(=O)Oc1ccccc1` [Compound 2, L-cystine diphenyl ester], the “Vo/V (inverse of V/Vo)” value ([1]; additive 0.015 mM) was 2.44 and the “V/Vo (normalized velocity of step advancement)” value ([1]; additive 0.015 mM) was 0.41.

In the case of `COC(=O)[C@@H](N)CSSC[C@H](N)C(=O)OC` [Compound 1, L-cystine dimethyl ester], the “Vo/V (inverse of V/Vo)” value ([1]; additive 0.015 mM) was 2.62 and the “V/Vo (normalized velocity of step advancement)” value ([1]; additive 0.015 mM) was 0.38.

In the case of `COC(=O)[C@@H](N)CO` [Compound 19, L-serine methyl ester], the “Vo/V (inverse of V/Vo)” value ([1]; additive 0.03 mM) was 0.93 and the “V/Vo (normalized velocity of step advancement)” value ([1]; additive 0.03 mM) was 1.07.

For `CC(S)C(=O)NCC(=O)O` (centres unmarked) [Compound 9, N-(2-Mercapto-propionyl)glycine, reference compound], the “Vo/V (inverse of V/Vo)” value ([1]; additive 0.03 mM) was 1.35 and the “V/Vo (normalized velocity of step advancement)” value ([1]; additive 0.03 mM) was 0.74.

For `N[C@@H](CCCC[C@H](N)C(=O)O)C(=O)O` [Compound 14, L-diaminooctanedioic acid], the “Vo/V (inverse of V/Vo)” value ([1]; additive 0.015 mM) was 1.03 and the “V/Vo (normalized velocity of step advancement)” value ([1]; additive 0.015 mM) was 0.97.

For `CC(C)(C)OC(=O)[C@@H](N)CSSC[C@H](N)C(=O)OC(C)(C)C` [Compound 8, L-cystine ditert-butyl ester], the “Vo/V (inverse of V/Vo)” value ([1]; additive 0.015 mM) was 1.43 and the “V/Vo (normalized velocity of step advancement)” value ([1]; additive 0.015 mM) was 0.7.

With `COC(=O)[C@@H](N)CSSC[C@H](N)C(=O)O` [Compound 7, L-cystine methyl ester] the “Vo/V (inverse of V/Vo)” value ([1]; additive 0.015 mM) was 1.47 and the “V/Vo (normalized velocity of step advancement)” value ([1]; additive 0.015 mM) was 0.68.

With `COC(=O)[C@@H](N)CS` [Compound 3, L-cysteine methyl ester] the “Vo/V (inverse of V/Vo)” value ([1]; additive 0.03 mM) was 2.05 and the “V/Vo (normalized velocity of step advancement)” value ([1]; additive 0.03 mM) was 0.49.

In the case of `COC(=O)[C@@H](N)CCCC[C@H](N)C(=O)OC` [Compound 12, L-dimethyl 2,7-diaminooctanedioate], the “Vo/V (inverse of V/Vo)” value ([1]; additive 0.015 mM) was 1.09 and the “V/Vo (normalized velocity of step advancement)” value ([1]; additive 0.015 mM) was 0.92.

For `COC(=O)[C@@H](N)CCSSCC[C@H](N)C(=O)OC` [Compound 5, L-homocystine dimethyl ester], the “Vo/V (inverse of V/Vo)” value ([1]; additive 0.015 mM) was 1.59 and the “V/Vo (normalized velocity of step advancement)” value ([1]; additive 0.015 mM) was 0.63.

In the case of `CC(C)OC(=O)[C@@H](N)CSSC[C@H](N)C(=O)OC(C)C` [Compound 6, L-cystine diisopropyl ester], the “Vo/V (inverse of V/Vo)” value ([1]; additive 0.015 mM) was 1.55 and the “V/Vo (normalized velocity of step advancement)” value ([1]; additive 0.015 mM) was 0.64.

For `CC(C)(C)OC(=O)N[C@@H](CSSC[C@H](NC(=O)OC(C)(C)C)C(=O)O)C(=O)O` [Compound 11, Nα,Nα′-di-Boc-L-cystine, reference compound], the “Vo/V (inverse of V/Vo)” value ([1]; additive 0.09 mM) was 1.23 and the “V/Vo (normalized velocity of step advancement)” value ([1]; additive 0.09 mM) was 0.81.

In the case of `N[C@@H](CCSSCC[C@H](N)C(=O)O)C(=O)O` [Compound 18, L-Homocystine, reference compound], the “Vo/V (inverse of V/Vo)” value ([1]; additive 0.015 mM) was 0.95 and the “V/Vo (normalized velocity of step advancement)” value ([1]; additive 0.015 mM) was 1.05.

In the case of `NCCSSCCN` [Compound 16, cystamine], the “Vo/V (inverse of V/Vo)” value ([1]; additive 0.015 mM) was 1 and the “V/Vo (normalized velocity of step advancement)” value ([1]; additive 0.015 mM) was 1.

In the case of `CCOC(=O)[C@@H](N)CSSC[C@H](N)C(=O)OCC` [Compound 4, L-cystine diethyl ester], the “Vo/V (inverse of V/Vo)” value ([1]; additive 0.015 mM) was 1.79 and the “V/Vo (normalized velocity of step advancement)” value ([1]; additive 0.015 mM) was 0.56.

In the case of `N[C@@H](CS)C(=O)O` [Compound 17, L-cysteine, reference compound], the “Vo/V (inverse of V/Vo)” value ([1]; additive 0.03 mM) was 1 and the “V/Vo (normalized velocity of step advancement)” value ([1]; additive 0.03 mM) was 1.
